Earlier results, collected in patent US20240082165A1, “METHODS AND COMPOSITIONS FOR PRECISION RELEASE OF PROBIOTICS TO IMPROVE HUMAN HEALTH” (SEED HEALTH INC., priority 2021, published 2024).

Columns and labels:
[1] = synthesized ligand, mice
[2] = delivered directly in the colon, overweight individuals

Row | Compound | protection from colitis [1] | energy intake, adiposity, liver lipid, plasma PYY and GLP-1 [2]
1 | M-tri-Lys | protected mice from colitis in a NOD2-dependent but MyD88-independent manner | 
2 | CCC(=O)O [propionate] |  | reduced energy intake, adiposity, and lipid liver content, and increased plasma levels of peptide YY (PYY) and glucagon-like peptide 1 (GLP-1)
